According to ChEMBL document CHEMBL1148343, “Fragment-based drug discovery” (J Med Chem, 2004):

Key:
[1] = target: Matrix metalloproteinase-9 (Homo sapiens, UniProt P14780); test: Inhibition of gelatinase B, matrix metalloprotease-9 (MMP-9)
Nucleic Acid = test: Dissociation constant towards Mutant U1061A RNA; assay type: nucleic-acid assay
Acetylcholinesterase [2] = target: Acetylcholinesterase (Mus musculus, UniProt P21836)
Description: Dissociation constant towards Acetylcholinesterase in mouse

Thymidylate synthase [3] = target: Thymidylate synthase (Homo sapiens, UniProt P04818); test: Tested for binding affinity towards thymidylate synthase
[4] = Inhibition of Interleukin-2 receptor
Bcl-2-like protein 1 = Bcl-2-like protein 1 (Homo sapiens, UniProt Q07817); test: Inhibitory concentration against B-Cell Lymphoma xL (Bcl-xL) Bak-peptide binding region; assay type: functional
[5] = target: Adenylosuccinate synthetase isozyme 2 (Homo sapiens, UniProt P30520)
Description: Inhibitory concentration against Adenylosuccinate synthetase

Adenosine deaminase = Adenosine deaminase (Homo sapiens, UniProt P00813)
Description: Binding affinity towards adenosine deaminase

[6] = Dissociation constant against FK506 binding protein
[7] = Oral bioavailability; assay type: ADME, organism-based; details: eutheria, in vivo
[8] = target: Mitogen-activated protein kinase 10 (Homo sapiens, UniProt P53779); test: Affinity for c-Jun N-terminal kinase 3
[9] = target: T1, Glycogen phosphorylase, liver form (Mus musculus, UniProt Q9ET01)
T1 sequence (Q9ET01 whole entry): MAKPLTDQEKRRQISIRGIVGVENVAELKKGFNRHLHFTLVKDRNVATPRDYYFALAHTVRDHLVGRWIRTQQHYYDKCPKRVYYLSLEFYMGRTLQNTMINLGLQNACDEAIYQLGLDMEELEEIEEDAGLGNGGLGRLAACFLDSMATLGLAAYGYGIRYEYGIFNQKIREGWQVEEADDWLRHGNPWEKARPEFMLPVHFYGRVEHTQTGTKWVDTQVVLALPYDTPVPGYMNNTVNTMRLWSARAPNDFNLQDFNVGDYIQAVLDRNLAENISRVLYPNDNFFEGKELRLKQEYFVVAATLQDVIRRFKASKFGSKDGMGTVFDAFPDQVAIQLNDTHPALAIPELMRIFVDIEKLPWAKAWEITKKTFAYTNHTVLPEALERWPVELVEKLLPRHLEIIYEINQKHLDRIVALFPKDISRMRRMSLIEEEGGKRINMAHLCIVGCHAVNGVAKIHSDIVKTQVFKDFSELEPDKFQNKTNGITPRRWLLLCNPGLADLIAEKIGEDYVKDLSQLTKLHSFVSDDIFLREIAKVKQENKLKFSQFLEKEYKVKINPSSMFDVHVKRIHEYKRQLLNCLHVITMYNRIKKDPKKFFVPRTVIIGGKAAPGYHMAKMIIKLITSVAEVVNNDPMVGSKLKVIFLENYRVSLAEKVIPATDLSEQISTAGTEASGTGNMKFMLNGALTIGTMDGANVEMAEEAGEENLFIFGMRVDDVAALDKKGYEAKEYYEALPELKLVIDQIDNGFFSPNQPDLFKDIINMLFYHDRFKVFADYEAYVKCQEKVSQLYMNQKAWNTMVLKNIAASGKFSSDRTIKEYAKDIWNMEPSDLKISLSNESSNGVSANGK
Description: Inhibitory concentration against glycogen phosphorylase

Thymidylate synthase [10] = target: Thymidylate synthase (Lactobacillus casei, UniProt P00469)
[11] = target: Neuraminidase (Influenza A virus (A/Puerto Rico/8/1934(H1N1)), UniProt P03468)
Description: Inhibition of influenza A viral enzyme neuraminidase

[12] = target: Proto-oncogene tyrosine-protein kinase Src (Homo sapiens, UniProt P12931); test: Inhibition of c-Src tyrosine kinase
Interstitial collagenase = Interstitial collagenase (Homo sapiens, UniProt P03956)
Description: Inhibition of Matrix Metalloprotease-1 (MMP-1)

Stromelysin-1 [13] = target: T2, Stromelysin-1 (Homo sapiens, UniProt P08254)
Description: Inhibition of Matrix Metalloprotease-3 (MMP-3)

[14] = target: Urokinase-type plasminogen activator (Homo sapiens, UniProt P00749)
Description: Binding affinity towards Urokinase-type plasminogen activator

Acetylcholinesterase [15] = target: Acetylcholinesterase (Rattus norvegicus, UniProt P37136); test: Inhibitory concentration against Acetylcholinesterase in rat brain; assay type: tissue-based
Human papillomavirus [16] = test: Dissociation constant against DNA-binding domain of the human papillomavirus protein E2; assay type: functional
[17] = target: Cyclin-dependent kinase 2 (Homo sapiens, UniProt P24941); test: Inhibition of Cyclin-Dependent Kinase 2
Collagenase 3 = Collagenase 3 (Homo sapiens, UniProt P45452); test: Inhibition of Matrix Metalloprotease-13 (MMP-13)
Stromelysin-1 [18] = target: T2, Stromelysin-1; test: Dissociation constant for Matrix Metalloprotease-3 (MMP-3)
[19] = Dissociation constant against Erythromycin-Resistance Methylase AM
[20] = target: Tyrosine-protein phosphatase non-receptor type 1 (Homo sapiens, UniProt P18031)
Description: Dissociation constant for Protein-tyrosine phosphatase 1B

Human papillomavirus [21] = test: Inhibitory concentration against DNA-binding domain of the human papillomavirus protein E2; assay type: functional
[22] = target: Intercellular adhesion molecule (ICAM-1), Integrin alpha-L/beta-2 (Homo sapiens, UniProt P05107+P20701)
Description: Inhibition of Leukocyte function associated antigen 1 (LFA-1)

[23] = Half life was determined; assay type: ADME; details: rat
Caspase-3 = Caspase-3 (Homo sapiens, UniProt P42574); test: Binding affinity against Caspase-3
[24] = Oral bioavailability was determined; Not orally available; assay type: ADME, organism-based; details: in vivo
[25] = Binding affinity against Erythromycin-Resistance Methylase AM

Chain of Neuraminidase (Influenza A virus (A/Puerto Rico/8/1934(H1N1)), UniProt P03468) (P03468 whole entry): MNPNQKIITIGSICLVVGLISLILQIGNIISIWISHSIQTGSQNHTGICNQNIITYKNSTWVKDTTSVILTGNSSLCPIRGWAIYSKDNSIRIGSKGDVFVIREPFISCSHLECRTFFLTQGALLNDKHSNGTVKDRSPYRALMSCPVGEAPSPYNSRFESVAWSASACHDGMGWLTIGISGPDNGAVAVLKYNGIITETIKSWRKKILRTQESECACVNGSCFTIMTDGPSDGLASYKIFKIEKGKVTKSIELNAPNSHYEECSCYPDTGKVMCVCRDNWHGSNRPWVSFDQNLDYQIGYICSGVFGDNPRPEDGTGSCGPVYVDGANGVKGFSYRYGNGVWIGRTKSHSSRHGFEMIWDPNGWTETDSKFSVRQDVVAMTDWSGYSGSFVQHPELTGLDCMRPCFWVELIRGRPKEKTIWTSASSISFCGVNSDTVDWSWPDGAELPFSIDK
Chain of Proto-oncogene tyrosine-protein kinase Src (P12931 2-536 limits assumed): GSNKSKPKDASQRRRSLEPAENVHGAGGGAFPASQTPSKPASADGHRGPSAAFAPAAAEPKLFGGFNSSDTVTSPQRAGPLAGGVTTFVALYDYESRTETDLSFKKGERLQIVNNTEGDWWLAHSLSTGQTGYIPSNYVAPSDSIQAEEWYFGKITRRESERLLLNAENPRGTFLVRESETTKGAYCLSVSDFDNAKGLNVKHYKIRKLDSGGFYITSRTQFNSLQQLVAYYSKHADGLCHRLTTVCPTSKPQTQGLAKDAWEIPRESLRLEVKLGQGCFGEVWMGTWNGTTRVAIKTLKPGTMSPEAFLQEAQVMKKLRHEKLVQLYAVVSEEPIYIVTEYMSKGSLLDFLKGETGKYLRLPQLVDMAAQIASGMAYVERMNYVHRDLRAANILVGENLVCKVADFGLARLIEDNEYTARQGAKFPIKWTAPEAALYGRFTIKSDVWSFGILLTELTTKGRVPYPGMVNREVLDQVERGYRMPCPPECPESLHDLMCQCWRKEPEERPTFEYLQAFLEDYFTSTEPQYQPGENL
T2 sequence (P08254 whole entry): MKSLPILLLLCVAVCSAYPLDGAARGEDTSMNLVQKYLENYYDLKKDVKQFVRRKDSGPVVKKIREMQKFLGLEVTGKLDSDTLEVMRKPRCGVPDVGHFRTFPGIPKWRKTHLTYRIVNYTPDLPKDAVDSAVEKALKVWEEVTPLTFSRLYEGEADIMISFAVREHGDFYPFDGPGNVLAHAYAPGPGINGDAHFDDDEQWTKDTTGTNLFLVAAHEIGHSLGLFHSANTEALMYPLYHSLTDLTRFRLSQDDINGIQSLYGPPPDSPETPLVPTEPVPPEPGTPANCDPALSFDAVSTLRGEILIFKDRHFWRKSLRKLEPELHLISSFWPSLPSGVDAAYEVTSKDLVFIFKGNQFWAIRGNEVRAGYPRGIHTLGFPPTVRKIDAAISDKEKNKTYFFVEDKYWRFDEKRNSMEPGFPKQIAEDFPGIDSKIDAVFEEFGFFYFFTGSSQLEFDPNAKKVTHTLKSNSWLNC
Chain of Adenylosuccinate synthetase isozyme 2 (P30520 whole entry): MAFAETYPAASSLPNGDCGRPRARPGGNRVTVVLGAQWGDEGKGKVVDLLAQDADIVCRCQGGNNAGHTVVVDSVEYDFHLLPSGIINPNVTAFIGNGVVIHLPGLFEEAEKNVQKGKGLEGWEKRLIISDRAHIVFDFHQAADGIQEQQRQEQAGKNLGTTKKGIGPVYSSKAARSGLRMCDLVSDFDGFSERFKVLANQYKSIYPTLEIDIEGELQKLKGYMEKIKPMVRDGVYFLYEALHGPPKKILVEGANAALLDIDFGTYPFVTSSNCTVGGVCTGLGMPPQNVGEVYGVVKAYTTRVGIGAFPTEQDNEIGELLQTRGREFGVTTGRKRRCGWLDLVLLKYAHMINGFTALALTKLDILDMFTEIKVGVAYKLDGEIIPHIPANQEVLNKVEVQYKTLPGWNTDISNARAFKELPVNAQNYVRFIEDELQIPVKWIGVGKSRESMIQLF
Chain of Thymidylate synthase (Lactobacillus casei, UniProt P00469) (P00469 whole entry): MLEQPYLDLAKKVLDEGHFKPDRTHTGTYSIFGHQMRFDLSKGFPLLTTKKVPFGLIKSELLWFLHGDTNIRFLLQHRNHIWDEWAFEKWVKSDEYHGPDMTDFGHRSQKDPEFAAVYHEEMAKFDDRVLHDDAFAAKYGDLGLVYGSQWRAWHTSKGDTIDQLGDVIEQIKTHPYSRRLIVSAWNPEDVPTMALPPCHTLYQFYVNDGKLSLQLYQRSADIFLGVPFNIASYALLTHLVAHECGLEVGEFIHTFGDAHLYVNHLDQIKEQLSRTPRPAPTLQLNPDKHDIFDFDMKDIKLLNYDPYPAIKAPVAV
Chain of Interstitial collagenase (P03956 whole entry): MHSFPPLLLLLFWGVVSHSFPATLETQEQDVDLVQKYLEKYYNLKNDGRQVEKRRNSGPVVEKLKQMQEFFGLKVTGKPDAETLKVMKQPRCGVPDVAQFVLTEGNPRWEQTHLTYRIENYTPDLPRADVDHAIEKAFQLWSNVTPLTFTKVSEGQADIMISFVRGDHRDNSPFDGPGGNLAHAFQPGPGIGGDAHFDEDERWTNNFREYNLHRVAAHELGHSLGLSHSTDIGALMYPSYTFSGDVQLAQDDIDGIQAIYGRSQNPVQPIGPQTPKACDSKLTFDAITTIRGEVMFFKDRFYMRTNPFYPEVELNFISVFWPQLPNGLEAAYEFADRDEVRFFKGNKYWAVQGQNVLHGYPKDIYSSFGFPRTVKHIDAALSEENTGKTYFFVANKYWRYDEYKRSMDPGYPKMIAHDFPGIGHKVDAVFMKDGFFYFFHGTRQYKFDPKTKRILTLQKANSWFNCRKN
Chain of Bcl-2-like protein 1 (Q07817 whole entry): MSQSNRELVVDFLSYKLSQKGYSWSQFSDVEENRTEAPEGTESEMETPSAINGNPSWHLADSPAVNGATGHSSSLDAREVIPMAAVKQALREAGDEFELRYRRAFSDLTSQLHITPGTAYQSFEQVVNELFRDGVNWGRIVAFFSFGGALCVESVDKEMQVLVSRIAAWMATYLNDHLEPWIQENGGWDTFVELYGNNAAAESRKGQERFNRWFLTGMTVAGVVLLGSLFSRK
Chain of Acetylcholinesterase (Rattus norvegicus, UniProt P37136) (P37136 whole entry, the tested form may be a part): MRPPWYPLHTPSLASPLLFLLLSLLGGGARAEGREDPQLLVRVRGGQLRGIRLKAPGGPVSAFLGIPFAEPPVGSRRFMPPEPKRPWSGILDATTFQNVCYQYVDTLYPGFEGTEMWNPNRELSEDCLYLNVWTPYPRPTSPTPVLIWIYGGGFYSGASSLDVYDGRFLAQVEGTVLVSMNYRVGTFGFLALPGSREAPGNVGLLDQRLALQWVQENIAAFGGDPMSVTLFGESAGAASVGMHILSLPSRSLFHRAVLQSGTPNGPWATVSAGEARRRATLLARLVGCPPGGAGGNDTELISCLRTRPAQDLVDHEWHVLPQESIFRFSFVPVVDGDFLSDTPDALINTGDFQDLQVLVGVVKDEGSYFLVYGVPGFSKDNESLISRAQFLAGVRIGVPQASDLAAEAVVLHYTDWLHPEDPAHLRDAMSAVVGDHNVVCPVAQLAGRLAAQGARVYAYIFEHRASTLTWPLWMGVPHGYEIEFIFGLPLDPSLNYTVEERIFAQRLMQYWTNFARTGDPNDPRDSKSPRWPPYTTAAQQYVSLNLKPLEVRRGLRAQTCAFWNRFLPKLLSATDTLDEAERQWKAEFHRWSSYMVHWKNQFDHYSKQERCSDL
Chain of Mitogen-activated protein kinase 10 (P53779 whole entry): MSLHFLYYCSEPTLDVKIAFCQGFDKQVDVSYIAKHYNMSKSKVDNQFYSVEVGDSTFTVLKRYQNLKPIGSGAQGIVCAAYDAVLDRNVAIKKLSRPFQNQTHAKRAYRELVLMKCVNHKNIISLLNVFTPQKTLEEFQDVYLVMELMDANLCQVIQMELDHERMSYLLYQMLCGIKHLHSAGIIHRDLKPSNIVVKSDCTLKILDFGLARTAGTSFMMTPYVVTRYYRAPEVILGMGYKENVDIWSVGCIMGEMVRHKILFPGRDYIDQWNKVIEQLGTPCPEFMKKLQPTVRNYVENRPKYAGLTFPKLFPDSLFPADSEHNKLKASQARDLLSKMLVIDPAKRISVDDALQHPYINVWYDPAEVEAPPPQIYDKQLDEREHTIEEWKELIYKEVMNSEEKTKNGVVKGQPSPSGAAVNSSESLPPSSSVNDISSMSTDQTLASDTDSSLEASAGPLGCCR
Chain of Thymidylate synthase (Homo sapiens, UniProt P04818) (P04818 whole entry): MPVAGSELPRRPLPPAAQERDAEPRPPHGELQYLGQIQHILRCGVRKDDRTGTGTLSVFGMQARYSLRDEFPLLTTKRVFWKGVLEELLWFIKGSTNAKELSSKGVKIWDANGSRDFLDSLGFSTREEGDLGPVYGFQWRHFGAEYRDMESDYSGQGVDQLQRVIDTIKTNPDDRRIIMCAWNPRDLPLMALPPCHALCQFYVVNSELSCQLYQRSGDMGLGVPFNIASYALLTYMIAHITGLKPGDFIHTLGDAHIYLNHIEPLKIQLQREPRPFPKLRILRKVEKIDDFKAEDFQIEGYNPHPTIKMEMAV
Chain of Acetylcholinesterase (Mus musculus, UniProt P21836) (P21836 whole entry): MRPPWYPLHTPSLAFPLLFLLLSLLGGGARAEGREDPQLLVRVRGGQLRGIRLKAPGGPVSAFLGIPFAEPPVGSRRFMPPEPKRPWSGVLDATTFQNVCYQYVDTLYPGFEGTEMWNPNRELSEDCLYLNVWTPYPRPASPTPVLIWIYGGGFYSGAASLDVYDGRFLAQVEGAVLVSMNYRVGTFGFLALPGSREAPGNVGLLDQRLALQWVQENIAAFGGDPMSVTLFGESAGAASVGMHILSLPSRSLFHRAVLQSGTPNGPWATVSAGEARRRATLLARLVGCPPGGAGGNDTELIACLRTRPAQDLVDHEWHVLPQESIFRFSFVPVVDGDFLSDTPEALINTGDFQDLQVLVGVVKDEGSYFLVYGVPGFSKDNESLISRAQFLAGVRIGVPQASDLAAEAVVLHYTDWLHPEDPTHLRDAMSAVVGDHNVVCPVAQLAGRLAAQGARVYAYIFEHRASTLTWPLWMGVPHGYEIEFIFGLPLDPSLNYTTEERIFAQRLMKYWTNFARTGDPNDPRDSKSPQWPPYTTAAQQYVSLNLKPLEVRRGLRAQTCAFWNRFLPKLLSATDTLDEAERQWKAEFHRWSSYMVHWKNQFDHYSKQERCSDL
Description for Carbonic anhydrase: Inhibitory concentration against carbonic anhydrase

## NCc1nc2ccc(NCc3ccccc3OCc3ccccc3)cc2[nH]1
[1]
  IC50: 13 µM

## NCC[C@@H](NC(=O)c1ccco1)C(=O)N1CCNCC1
Nucleic Acid
  Kd: > 100 µM

## CC[N+](C)(CC)CCC[n+]1c(-c2ccccc2)c2cc(N)ccc2c2ccc(N)cc21 [PROPIDIUM]
Acetylcholinesterase [2]
  Kd: 1.1 µM

## Cc1ccc(S(=O)(=O)N2CCC[C@@H]2C(=O)O)cc1
Thymidylate synthase [3]
  Ki: 1100 µM

## CC(C)C[C@@H](NC(=N)N)C(=O)NCC(=O)N1CCC(c2cc(-c3ccc(OCc4ccc(C(=O)O)o4)c(Cl)c3Cl)nn2C)CC1
[4]
  IC50: 0.06 µM

## CN(C)CCC=C(c1ccc(Cl)cc1)c1ccc(Cl)cc1
Bcl-2-like protein 1
  IC50: 180 µM

## O=C1NC(=O)[C@@]2(N1)O[C@H](COP(=O)(O)O)[C@@H](O)[C@H]2O [PHOSPHOHYDANTOCIDIN]
[5]
  IC50: 0.675 µM

## NC(N)=Nc1nc(-c2ccc(CNc3cc4ccccc4[nH]3)s2)cs1
Adenosine deaminase
  Ki: 1.2 µM

## COC(=O)[C@@H]1CCCCN1C(=O)C(=O)c1cc(OC)c(OC)c(OC)c1
[6]
  Kd: 2 µM

## Nc1ccc2cccc(Nc3ncccn3)c2n1
[7]
  bioavailability: 38%

## O=C(Nc1cccc(C(F)(F)F)c1)c1csc(-c2ccncc2)n1
[8]
  Ki: 13 µM

## COCCNC(=O)c1cc2cc(Cl)ccc2[nH]1
[9]
  IC50: 12.5 µM

## O=C(O)CC[C@H](NC(=O)c1ccc(S(=O)(=O)N2CCC[C@@H]2C(=O)O)cc1)C(=O)O
Thymidylate synthase [10]
  Ki: 24 µM

## CCCNC(=O)c1ccc2nc(O)c(O)nc2c1
Nucleic Acid
  Kd: > 100 µM

## CN(C)CC/C=C(\c1ccc(Cl)cc1)c1ccc(CCCc2ccc(/C(=C\CCN(C)C)c3ccc(Cl)cc3)cc2)cc1
Bcl-2-like protein 1
  IC50: 10 µM

## O=C(O)c1ccc2nc(O)c(O)nc2c1
Nucleic Acid
  Kd: > 100 µM

## CCC(CC)N[C@@H]1C=C(C(=O)O)C[C@H](N)[C@H]1NC(C)=O
[11]
  IC50: 0.085 µM

## CN(C)C(=O)[C@H](O)[C@H](Cc1ccccc1)NC(=O)c1cc2cc(Cl)ccc2[nH]1
[9]
  IC50: 0.13 µM

## O=C(Nc1ccccc1)c1c(Nc2ccccc2)[nH]c(=O)[nH]c1=O
[8]
  Ki: 0.72 µM

## CC(=O)N[C@H]1[C@H](N)C=C(C(=O)O)C[C@@H]1N
[11]
  IC50: 31 µM

## CCn1c2ccccc2c2cc(/C=N\OCCO/N=C/c3ccc(O)c(O)c3)ccc21
[12]
  IC50: 0.064 µM

## Cc1cc(C)c(N(Cc2ccccc2)S(=O)(=O)c2ccc(OCCNC(=O)c3cc4ccccc4o3)cc2)c(C(=O)NO)c1
Interstitial collagenase
  IC50: > 10 µM

## NCC[C@@H](NC(=O)c1ccc(-c2cccc(NC(=O)c3ccc4nc(O)c(O)nc4c3)c2)o1)C(=O)N1CCNCC1
Nucleic Acid
  Kd: 6.5 µM

## O=C(O)CCNC(=O)[C@H]1CCCN1S(=O)(=O)c1ccc(C(=O)N[C@@H](CCC(=O)O)C(=O)O)cc1
Thymidylate synthase [10]
  Ki: 0.33 µM

## CONC(=O)c1c(OCCOc2ccc(-c3ccc(C#N)cc3)cc2)ccc2ccccc12
Stromelysin-1 [13]
  IC50: 0.34 µM

## Nc1ccc2cccc(O)c2n1
[14]
  Ki: 56 µM

## C1=CC2N=C3CCCCC3=C(NCCCCCCCNc3c4c(nc5ccccc35)CCCC4)C2C=C1 (stereo not drawn)
Acetylcholinesterase [15]
  IC50: 0.0004 µM

## CCn1c2ccccc2c2cc(/C=N\OC)ccc21
[12]
  IC50: 40 µM

## O=C(O)CCCc1ccc(Oc2ccccc2)cc1
Human papillomavirus [16]
  Kd: 1900 µM

## NS(=O)(=O)c1ccc(CSCc2ccc(C(=O)O)cc2)cc1
Carbonic anhydrase
  IC50: 0.084 µM

## O=CN(O)CC(=O)O [HADACIDIN]
[5]
  IC50: 3.5 µM

## NS(=O)(=O)c1ccc(N/N=C2\C(=O)Nc3ccc(Cl)cc32)cc1 [GW280670X]
[17]
  IC50: 0.03 µM

## O=C(Nc1ccccc1O)c1ccc(O)cc1
[6]
  Kd: 800 µM

## O=C(NCCCCN1CCOCC1)c1cc2ccccc2o1
Interstitial collagenase
  IC50: > 10 µM
Collagenase 3
  IC50: 10 µM

## O=C(NCCOCCOCCNC(=O)c1cc2cc(Cl)ccc2[nH]1)c1cc2cc(Cl)ccc2[nH]1
[9]
  IC50: 0.006 µM

## CO/N=C/c1ccc(O)c(O)c1
[12]
  IC50: 41 µM

## Oc1ccc(-c2ccccc2)cc1
Stromelysin-1 [18]
  Kd: 280 µM

## CSc1nc(N)nc(N)n1
[19]
  Kd: 1000 µM

## O=C(O)c1cc2ccccc2s1
[20]
  Kd: > 1000 µM

## O=C(O)/C=C/C=C/c1cccc(Oc2cc(Cl)cc(Cl)c2)c1
Human papillomavirus [21]
  IC50: 10 µM

## CC(=O)N[C@@H]1[C@@H](N)CC(C(=O)O)=C[C@H]1NCCCc1ccccc1
[11]
  IC50: 1.64 µM

## CC(=O)N1CCN(C(=O)/C=C/c2cccc([N+](=O)[O-])c2)CC1
[22]
  IC50: 80 µM

## NC(=O)CSCc1ccc(S(N)(=O)=O)cc1
Carbonic anhydrase
  IC50: 0.77 µM

## O=CN(O)[C@@H](CCCN1C(=O)N[C@@]2(O[C@H](COP(=O)(O)O)[C@@H](O)[C@H]2O)C1=O)C(=O)O
[5]
  IC50: 0.043 µM

## CC(=O)N1CCN(C(=O)/C=C/c2ccc(Sc3ccc4[nH]ccc4c3)c(Cl)c2)CC1
[23]
  half-life: 4.7 h

## COc1ccc(-c2cc(C3CCN(C(=O)CNC(=O)[C@@H](CC(C)C)N=C(N)N)CC3)n(C)n2)c(Cl)c1Cl
[4]
  IC50: 3 µM

## CNS(=O)(=O)c1ccc(O)c(C(=O)O)c1
Caspase-3
  Ki: > 1000 µM

## COc1cc(C(=O)C(=O)N2CCCC[C@H]2C(=O)OCCCOc2ccc(C(=O)Nc3ccc(O)cc3)cc2)cc(OC)c1OC
[6]
  Kd: 0.019 µM

## O=C(O)c1ccc(-c2cc(Cl)cc(Cl)c2)cc1
Human papillomavirus [21]
  IC50: 150 µM
Human papillomavirus [16]
  Kd: 60 µM

## N=C(N)c1ccc2cccc(Nc3ncccn3)c2c1
[24]
  Bioavailabiility: Not orally available

## O=C(O)/C=C/C=C/c1ccc(Oc2ccccc2)cc1
Human papillomavirus [21]
  IC50: 75 µM
Human papillomavirus [16]
  Kd: 350 µM

## Nc1nc(NC2Cc3ccccc3C2)nc(N2CCCCC2)n1
[25]
  Ki: 8 µM

## N#CCc1cccc(-c2ccc(O)cc2)c1
Stromelysin-1 [18]
  Kd: 20 µM

## c1ccc(NCCCCCCCNc2c3c(nc4ccccc24)CCCC3)cc1
Acetylcholinesterase [15]
  IC50: 0.39 µM

## O=C(Nc1ccc(O)cc1)c1ccc(O)cc1
[6]
  Kd: 100 µM
